Active and inactive are the calls of the source. The calls are words filed in the database; no cut-off is given here.
How the values were obtained:
[1] = test system: Staphylococcus aureus; assay: Antibacterial activity against SCCmec type 4 genotype-positive and methicillin-resistant Staphylococcus aureus by CLSI method; type: functional, organism-based
[2] = test system: Staphylococcus aureus; assay: Antibacterial activity against SCCmec type 2 genotype-positive and methicillin-resistant Staphylococcus aureus by CLSI method; type: functional, organism-based

Row | Structure (SMILES) | Activity [1] | Activity [2]
1 | CN(C)[C@@H]1C(O)=C(C(N)=O)C(=O)[C@@]2(O)C(O)=C3C(=O)c4c(O)cccc4[C@@](C)(O)[C@H]3C[C@@H]12 | inactive | 
2 | C[C@H]1COc2c(N3CCN(C)CC3)c(F)cc3c(=O)c(C(=O)O)cn1c23 | Active | inactive
3 | CCC[C@@H]1C[C@@H](C(=O)N[C@@H]([C@H]2O[C@H](SC)[C@H](O)[C@@H](O)[C@H]2O)[C@H](C)Cl)N(C)C1 | Active | inactive
